From the supplement of paper PMC9663587 come the findings set out here.

Test systems include HCC1806; SUM44PE; EFM19; SUM185PE; HCC70; MDAMB453; HS578T; ZR751; CAL851; UACC893; BT20; HCC38.
Holding throughout (assay): GRmax, 72 h; higher = less effect;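 also: breast cell lines in 384-well plates, nine doses across a 10^4 range, Dye Drop imaging of viable cells vs DMSO and time-zero plates, GR 0 means no net growth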

Each structure is given as a SMILES string.

`COc1cc2c(Oc3ccc4[nH]c(C)cc4c3F)ncnc2cc1OCCCN1CCCC1` [Cediranib/AZD2171] (max 10 µM): the “GRmax, 72 h” value with HCC1806 was 0.0954 GR; in the assay on SUM44PE, 0.417 GR; with EFM19, 0.685 GR; in the assay on SUM185PE, 0.0765 GR; with HCC70, -0.326 GR; in the assay on MDAMB453 it was -0.689 GR. Besides, the “GRmax, 72 h” value is -0.572 GR in the assay on HS578T; 0.672 GR with ZR751; -0.238 GR with CAL851; -0.458 GR in the assay with UACC893; 0.221 GR in the assay with BT20; -0.204 GR with HCC38.
`Cc1cc(Nc2ncc(Cl)c(Nc3ccccc3S(=O)(=O)C(C)C)n2)c(OC(C)C)cc1C1CCNCC1` [Ceritinib/LDK378] (max 10 µM): the “GRmax, 72 h” value is -0.406 GR in the assay with HCC1806; -0.32 GR with SUM44PE; -0.258 GR with EFM19; 0.412 GR in the assay with SUM185PE; -0.881 GR in the assay with HCC70; -0.687 GR in the assay on MDAMB453. For the same compound, the “GRmax, 72 h” value in the assay with HS578T is -0.436 GR; in the assay with ZR751 it was -0.159 GR; in the assay with CAL851, -0.596 GR; with UACC893 it was 0.807 GR; with BT20, -0.737 GR; with HCC38, -0.404 GR.
Consider `N.N.[Cl][Pt][Cl]` [Cisplatin] (max 10 µM), for which the “GRmax, 72 h” value in the assay with HCC1806 is -0.365 GR; in the assay with HCC70, -0.683 GR; in the assay with MDAMB453, 0.133 GR; in the assay with HS578T, 0.0125 GR; with CAL851 it was 0.018 GR; in the assay with BT20, -0.337 GR. Further, the “GRmax, 72 h” value in the assay with HCC38 was -0.103 GR.
In the case of `Cc1nc(Nc2ncc(C(=O)Nc3c(C)cccc3Cl)s2)cc(N2CCN(CCO)CC2)n1` [Dasatinib] (max 10 µM), the “GRmax, 72 h” value was -0.0992 GR in the assay with HCC1806; 0.47 GR in the assay on SUM44PE; -0.0421 GR in the assay on EFM19; 0.388 GR with SUM185PE; -0.579 GR in the assay on HCC70; 0.549 GR in the assay on MDAMB453. Further, the “GRmax, 72 h” value with HS578T is -0.244 GR; in the assay with ZR751, -0.213 GR; with CAL851, -0.244 GR; in the assay with UACC893, 0.706 GR; in the assay with BT20, 0.283 GR; in the assay on HCC38 it was 0.332 GR.
On to `COc1cccc2c1C(=O)c1c(O)c3c(c(O)c1C2=O)C[C@@](O)(C(=O)CO)C[C@@H]3O[C@H]1C[C@H](N)[C@H](O)[C@H](C)O1` [Doxorubicin] (max 3.162 µM), for which the “GRmax, 72 h” value in the assay on HCC1806 was -0.324 GR; with SUM44PE it was -0.677 GR; with EFM19, -0.18 GR; in the assay with SUM185PE it was 0.744 GR; in the assay with HCC70, -0.779 GR; in the assay with MDAMB453 it was -0.348 GR. Besides, the “GRmax, 72 h” value is -0.347 GR in the assay with HS578T; -0.0018 GR with ZR751; -0.378 GR in the assay on CAL851; -0.405 GR in the assay with UACC893; -0.481 GR with BT20; -0.406 GR in the assay on HCC38.
In the case of `COc1cc([C@@H]2c3cc4c(cc3[C@@H](O[C@@H]3O[C@@H]5CO[C@@H](C)O[C@H]5[C@H](O)[C@H]3O)[C@H]3COC(=O)[C@H]23)OCO4)cc(OC)c1O` [Etoposide] (max 10 µM), the “GRmax, 72 h” value with HCC1806 was -0.563 GR; in the assay on HCC70, -0.152 GR; in the assay on MDAMB453 it was -0.0601 GR; in the assay on HS578T, -0.136 GR; with CAL851, -0.241 GR; in the assay on BT20 it was -0.383 GR. In addition, in the assay on HCC38, the “GRmax, 72 h” value is -0.424 GR.
As for `CO[C@H]1C[C@@H]2CC[C@@H](C)[C@@](O)(O2)C(=O)C(=O)N2CCCC[C@H]2C(=O)O[C@H]([C@H](C)C[C@@H]2CC[C@@H](OCCO)[C@H](OC)C2)CC(=O)[C@H](C)/C=C(\C)[C@@H](O)[C@@H](OC)C(=O)[C@H](C)C[C@H](C)/C=C/C=C/C=C/1C` [Everolimus] (max 10 µM), the “GRmax, 72 h” value with HCC1806 was 0.817 GR; with SUM44PE, 0.19 GR; in the assay on EFM19 it was 0.249 GR; in the assay with SUM185PE, 0.78 GR; with HCC70 it was 0.373 GR; with MDAMB453, 0.0309 GR. The “GRmax, 72 h” value in the assay with HS578T came out at 0.42 GR; in the assay with ZR751, 0.305 GR; with CAL851, 0.371 GR; with UACC893, 0.159 GR; with BT20, 0.39 GR; in the assay with HCC38 it was 0.473 GR.
In the case of `CCC(=O)Nc1ccc(C(=O)Nc2ccc(Nc3ncc4c(n3)N(C)c3ccc(C)cc3C(=O)N4C)cc2)cc1` [FMF-03-145-1], the “GRmax, 72 h” value in the assay with HCC1806 was -0.09 GR; in the assay on SUM44PE it was -0.0614 GR; in the assay on EFM19 it was 0.175 GR; in the assay on SUM185PE, 0.205 GR; in the assay with HCC70 it was -0.317 GR; in the assay with MDAMB453, 0.0994 GR. For the same compound, the “GRmax, 72 h” value in the assay on HS578T was -0.183 GR; in the assay on ZR751 it was 0.153 GR; in the assay with CAL851 it was -0.136 GR; with UACC893, 0.127 GR; in the assay on BT20, -0.201 GR; with HCC38, -0.376 GR.
On to `CC[C@@]1(O)C(=O)OCc2c1cc1n(c2=O)Cc2cc3c(CN(C)C)c(O)ccc3nc2-1` [Topotecan] (max 10 µM), for which the “GRmax, 72 h” value with HCC1806 is -0.546 GR; in the assay with HCC70, -0.861 GR; with MDAMB453, -0.529 GR; with HS578T it was -0.449 GR; in the assay with CAL851 it was -0.296 GR; with BT20, -0.641 GR. Besides, in the assay with HCC38, the “GRmax, 72 h” value is -0.504 GR.
